Data: ChEMBL document CHEMBL1250444, “Nitric oxide activates TRP channels by cysteine S-nitrosylation” (Nat Chem Biol, 2006)
Changes are numbered by the printed parent chain. Active and inactive are the calls of the source. No cut-off for these calls is given here.

Legend:
Assay type in all cases: cell-based
HEK293 = test: Activation of rat TRPV1 Cys621 mutant expressed in HEK cells assessed as increase in Ca2+ level from extracellular space at 10 uM
[1] = biological target: T1, Transient receptor potential cation channel subfamily V member 3 (Homo sapiens) (UniProt Q8NET8); test: Activation of TRPV3 in HEK cells assessed as increase in Ca2+ level from extracellular space at 10 uM; conditions: HEK293
T1 sequence (whole entry): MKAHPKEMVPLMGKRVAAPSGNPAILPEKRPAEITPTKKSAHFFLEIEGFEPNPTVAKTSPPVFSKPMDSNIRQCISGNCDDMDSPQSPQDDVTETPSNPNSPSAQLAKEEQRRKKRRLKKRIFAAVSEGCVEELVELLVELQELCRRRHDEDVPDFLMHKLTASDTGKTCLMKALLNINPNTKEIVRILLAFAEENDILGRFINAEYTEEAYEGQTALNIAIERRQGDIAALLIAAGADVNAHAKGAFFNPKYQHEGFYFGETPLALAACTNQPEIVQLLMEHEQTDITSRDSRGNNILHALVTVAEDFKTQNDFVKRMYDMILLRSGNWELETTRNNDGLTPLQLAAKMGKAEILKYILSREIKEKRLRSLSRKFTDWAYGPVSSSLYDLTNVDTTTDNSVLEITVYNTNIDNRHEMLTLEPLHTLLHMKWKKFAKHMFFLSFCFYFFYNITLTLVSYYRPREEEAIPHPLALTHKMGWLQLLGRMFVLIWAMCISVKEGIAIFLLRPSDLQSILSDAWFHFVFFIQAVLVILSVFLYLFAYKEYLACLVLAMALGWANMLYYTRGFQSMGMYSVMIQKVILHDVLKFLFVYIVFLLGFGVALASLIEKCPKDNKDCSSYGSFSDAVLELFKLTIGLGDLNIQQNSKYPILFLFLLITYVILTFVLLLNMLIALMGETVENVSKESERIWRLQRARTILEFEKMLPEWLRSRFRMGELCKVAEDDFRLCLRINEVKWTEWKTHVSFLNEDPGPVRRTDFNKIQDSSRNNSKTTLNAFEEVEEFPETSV

[2] = biological target: Transient receptor potential cation channel subfamily M member 7 (Homo sapiens) (UniProt Q96QT4); test: Induction of TRPM7 S-nitrosylation in HEK cells assessed as increase in Ca2+ level from extracellular space at 30 uM; conditions: HEK293
Sequence of Transient receptor potential cation channel subfamily M member 7 (Homo sapiens) (Q96QT4 whole entry): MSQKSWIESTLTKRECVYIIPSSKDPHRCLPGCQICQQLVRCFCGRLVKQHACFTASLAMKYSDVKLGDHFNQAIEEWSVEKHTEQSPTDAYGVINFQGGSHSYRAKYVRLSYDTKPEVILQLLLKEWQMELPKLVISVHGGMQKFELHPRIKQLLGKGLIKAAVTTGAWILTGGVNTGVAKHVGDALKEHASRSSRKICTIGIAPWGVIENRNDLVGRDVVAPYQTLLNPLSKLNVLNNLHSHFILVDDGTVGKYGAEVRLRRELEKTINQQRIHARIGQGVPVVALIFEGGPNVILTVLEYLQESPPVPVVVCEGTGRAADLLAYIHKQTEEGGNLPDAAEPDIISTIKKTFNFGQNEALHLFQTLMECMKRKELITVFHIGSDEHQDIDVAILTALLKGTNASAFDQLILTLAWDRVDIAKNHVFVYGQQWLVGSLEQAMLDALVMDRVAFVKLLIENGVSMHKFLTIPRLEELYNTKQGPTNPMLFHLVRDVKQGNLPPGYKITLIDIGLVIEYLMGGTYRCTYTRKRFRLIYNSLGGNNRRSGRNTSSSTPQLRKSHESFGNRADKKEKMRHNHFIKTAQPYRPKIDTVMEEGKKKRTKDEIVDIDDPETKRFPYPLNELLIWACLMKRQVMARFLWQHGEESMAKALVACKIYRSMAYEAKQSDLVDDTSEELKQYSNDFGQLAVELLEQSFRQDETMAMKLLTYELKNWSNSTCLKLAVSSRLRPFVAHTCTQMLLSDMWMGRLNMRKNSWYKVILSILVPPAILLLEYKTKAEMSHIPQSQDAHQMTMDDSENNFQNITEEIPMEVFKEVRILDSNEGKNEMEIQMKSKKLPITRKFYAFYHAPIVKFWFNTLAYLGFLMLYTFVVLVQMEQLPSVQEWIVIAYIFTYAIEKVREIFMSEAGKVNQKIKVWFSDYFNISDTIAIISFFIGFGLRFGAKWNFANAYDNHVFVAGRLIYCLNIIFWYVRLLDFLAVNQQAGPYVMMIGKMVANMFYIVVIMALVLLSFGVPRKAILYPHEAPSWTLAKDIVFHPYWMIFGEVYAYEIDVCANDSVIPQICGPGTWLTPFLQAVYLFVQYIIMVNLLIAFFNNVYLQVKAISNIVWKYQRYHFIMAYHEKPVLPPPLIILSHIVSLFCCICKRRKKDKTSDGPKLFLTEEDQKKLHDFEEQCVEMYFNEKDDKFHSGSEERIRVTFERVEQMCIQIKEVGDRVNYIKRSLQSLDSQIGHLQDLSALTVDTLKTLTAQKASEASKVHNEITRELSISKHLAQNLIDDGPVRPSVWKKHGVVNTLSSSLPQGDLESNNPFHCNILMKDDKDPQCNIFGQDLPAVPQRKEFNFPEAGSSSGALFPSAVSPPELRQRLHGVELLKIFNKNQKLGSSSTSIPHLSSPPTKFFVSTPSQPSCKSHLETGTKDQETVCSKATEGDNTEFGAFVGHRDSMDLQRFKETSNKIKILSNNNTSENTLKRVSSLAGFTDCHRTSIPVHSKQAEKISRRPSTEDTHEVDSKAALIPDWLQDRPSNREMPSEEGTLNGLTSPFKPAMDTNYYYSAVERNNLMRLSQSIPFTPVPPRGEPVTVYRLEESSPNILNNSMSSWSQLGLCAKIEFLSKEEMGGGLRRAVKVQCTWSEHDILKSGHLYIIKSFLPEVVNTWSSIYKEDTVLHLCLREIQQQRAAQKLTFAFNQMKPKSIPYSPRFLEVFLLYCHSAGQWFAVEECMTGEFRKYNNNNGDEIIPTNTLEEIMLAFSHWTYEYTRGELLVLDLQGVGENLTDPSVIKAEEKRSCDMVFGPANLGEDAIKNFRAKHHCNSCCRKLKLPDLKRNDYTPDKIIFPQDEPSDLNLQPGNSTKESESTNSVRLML

[3] = biological target: T2, Short transient receptor potential channel 5 (Homo sapiens) (UniProt Q9UL62); test: Induction of S-nitrosylation of TRPC5 in HEK cells assessed as increase in Ca2+ level from extracellular space at 30 uM in presence of dithiothreitol; conditions: HEK293
T2 sequence (whole entry): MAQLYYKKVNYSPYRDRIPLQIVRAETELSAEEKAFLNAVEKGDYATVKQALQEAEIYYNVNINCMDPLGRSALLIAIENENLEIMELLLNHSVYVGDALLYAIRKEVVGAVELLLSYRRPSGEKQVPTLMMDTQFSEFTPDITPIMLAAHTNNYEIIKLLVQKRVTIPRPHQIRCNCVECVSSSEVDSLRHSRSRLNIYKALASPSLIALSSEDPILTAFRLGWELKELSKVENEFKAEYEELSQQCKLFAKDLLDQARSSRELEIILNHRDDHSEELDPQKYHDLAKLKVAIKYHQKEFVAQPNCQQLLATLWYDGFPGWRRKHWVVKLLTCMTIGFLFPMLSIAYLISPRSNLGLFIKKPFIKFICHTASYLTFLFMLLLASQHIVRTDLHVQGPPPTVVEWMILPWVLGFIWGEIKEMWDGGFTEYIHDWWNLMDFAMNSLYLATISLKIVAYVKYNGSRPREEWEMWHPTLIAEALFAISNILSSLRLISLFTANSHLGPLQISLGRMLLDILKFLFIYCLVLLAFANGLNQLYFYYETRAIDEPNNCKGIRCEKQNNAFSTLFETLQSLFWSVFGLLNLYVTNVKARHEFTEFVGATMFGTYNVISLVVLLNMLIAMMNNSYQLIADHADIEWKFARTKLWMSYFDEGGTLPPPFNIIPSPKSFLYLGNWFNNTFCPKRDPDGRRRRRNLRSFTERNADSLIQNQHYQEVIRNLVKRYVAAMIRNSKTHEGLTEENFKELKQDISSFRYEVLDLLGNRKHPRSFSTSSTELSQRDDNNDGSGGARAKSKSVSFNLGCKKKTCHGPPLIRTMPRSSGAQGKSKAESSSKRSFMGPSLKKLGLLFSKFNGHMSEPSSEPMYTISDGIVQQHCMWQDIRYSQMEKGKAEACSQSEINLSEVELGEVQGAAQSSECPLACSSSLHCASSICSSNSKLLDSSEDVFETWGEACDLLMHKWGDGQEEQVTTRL

[4] = biological target: T2, Short transient receptor potential channel 5 (Homo sapiens); test: Induction of S-nitrosylation of TRPC5 in HEK cells assessed as increase in Ca2+ level from extracellular space at 1 mM in presence of dithiothreitol; conditions: HEK293
[5] = tested on: T3, Short transient receptor potential channel 5 (Homo sapiens), Q9UL62 [C558S]; test: Decrease in TRPC5 C558S mutant S-nitrosylation in HEK cells assessed as inhibition of incorporation of DTNB-2Bio at 300 uM relative to control; conditions: HEK293
T3 sequence (whole entry): T2 sequence (whole entry) with C558S

Activity [1]	Activity [2]	Activity [3]	Activity [4]	Activity [5]	SMILES	Activity (HEK293)
Active	inactive	inactive	–	–	O=[N+]([O-])c1ccc(SSc2ccc([N+](=O)[O-])cn2)nc1	inactive
–	–	–	inactive	Active	CC(=O)N[C@@H](C(=O)O)C(C)(C)SN=O (racemic)	–
